From patent US20080275036A1, “Prevention and treatment of cardiac conditions” (APT Pharmaceuticals, Inc., priority 2007, published 2008)
Entries after “also recorded” stand apart in the source; their conditions may differ. Like-named read-outs stand apart in the source and are kept apart here.

What was measured:
[1] = cited from earlier work
[2] = tested on: single ventricular myocytes; test: Unloaded cell shortening (UCS) of single ventricular myocytes; conditions: 10 μM
[3] = cited from earlier work; remark: listed apart in the source
[4] = tested on: isolated guinea pig myocytes; test: Action potential properties in isolated guinea pig myocytes; format: cell-based
[5] = tested on: single guinea-pig ventricular myocytes; test: Action potential recording in single guinea-pig ventricular myocytes; format: cell-based; conditions: for action potential duration (effect in words): superfused 10 to 30 minutes
Procedure: Myocytes were isolated after perfusion of the heart with a physiological salt solution containing reduced calcium and 0.8 mg/mL of collagenase Type 1 (Worthington Biochemicals).
Action potentials were recorded from single guinea-pig ventricular myocytes using the standard control conditions and criteria as adopted by CCTT Ltd. (see http://www.cctt.ltd.uk/ap1.htm). Briefly, action potentials were recorded using conventional glass microelectrodes filled with 1 M KMeSO4 and 10 mM KCl. Electrode resistances were in the range of 40 to 60 MΩ. An Axoclamp 2B (Axon Instruments Inc) amplifier was used for electrical recording. Action potentials were continuously stimulated by application of a brief (1-2 ms) current stimuli applied via the intracellular microelectrode in ‘bridge’ mode. Following penetration of the cell with the microelectrode, a stabilisation period of at least 5 min was allowed before recordings were started. The frequency of stimulation was 1 Hz. Recorded signals were digitised at a sampling frequency of 5 kHz and stored for subsequent off line analysis. Action potential signals were continuously monitored online using an oscilloscope (Tektronix digital storage oscilloscope) to check for development of effects of dexrazoxane. All recordings are made at 36±1° C.
The stability of several parameters of the action potential profile (resting potential, action potential amplitude and action potential duration) was ensured before recordings were commenced. Resting potential was measured over a 5-10 ms period before the stimulus artefact and values for the resting potential falling between −75 to −85 mV were taken as normal. Action potential amplitude was measured following the stimulus artefact and values falling between 110 to 130 mV were taken as normal.
All data are presented as mean ±SEM. The effect of dexrazoxane on action potential characteristics was assessed using Student's t-test (MicroSoft Excel) and P<0.05 was taken to indicate statistical significance.
Action potential duration was measured from the peak amplitude of the action potential to 90% repolarisation level (APD90), and values for APD90 falling between 150 to 300 ms were taken as normal. Parameters measured in this study were action potential duration at 40, and 90% repolarisation levels (APD40 and APD90) using Clampfit 9.0.
For each cell, APD40 and APD90 values were calculated in the absence (control) and presence of a drug. As an index of ‘Triangulation’ APD90-APD40, (APD90-40 ms) in the absence (APD90-40 control) and presence of dexrazoxane (APD90-40 drug) were calculated. This was normalised to the starting (control) APD90 to express APD90-40 duration as a % of control APD90. Calculations were made for each cell individually; the values for each drug concentration were then averaged.

[6] = tested on: isolated guinea pig myocytes; test: Calcium transients in isolated guinea pig myocytes; format: cell-based
Procedure: Calcium transients were measured during activation in isolated guinea pig myocytes. […] This increase in calcium transient without an action potential increase indicates an effect on calcium cycling proteins.

[7] = tested on: isolated, perfused guinea pig heart; test: Perfusion of doxorubicin and dexrazoxane in the isolated, perfused guinea pig heart (Langendorff); conditions: for % change in MAP duration / % change in QTc / Cardiac rate / Cor flow / LV dp/dt max / LV dpdt (relax) / LV peak systolic pressure / LVEDP / MAP Duration / QTcF: 30 min of perfusion
Procedure: Perfusion studies of doxorubicin and dexrazoxane in the isolated, perfused guinea pig heart were performed similarly as above. The following parameters were recorded continuously: electrocardiogram (ECG), monophasic action potentials (MAP), perfusion pressure, left ventricular pressure and coronary flow. These effects could be related to some modifications of cardiac electrophysiology (changes in PR, QRS, QT and RR intervals, proarrhythmic effects, Torsade de pointes . . . ), of coronary resistance and/or of cardiac contraction or inotropism (contractility or relaxation troubles).
Stock solutions (10^−2M, 3×10^−2M) in H20 for each drug were prepared each day of the experiment and a dilution (1/1000) done in the perfusion buffer in order to get the appropriate concentrations:
The buffer used in the experiment was KREBS-[…] buffer (Sigma K-3753) to which was added sodium bicarbonate (Sigma S5761) 25 mM and calcium chloride dihydrate (Sigma C8106) 1.8 mM.
The ECG (2 electrodes: on the apex and closed to the right auricular) and the MAP (electrode on the epicardium) were recorded. PR, QRS, QT and RR were measured and QTc (Fridericia; QTc=QT/(RR) ⅓ in ms) was calculated.
The coronary flow (mL/min) is indicated by the perfusion pump. In this model, the perfusion pressure was constant.
Diastolic pressure (mmHg), systolic pressure (mmHg), differential pressure (syst-diast) (mmHg), mean pressure (mmHg), dP/dt min (mmHg/sec) dP/dt max (mmHg/sec) and cardiac frequency (beat per minute: BPM) were measured. A modification of the inotropism can be a problem of cardiac contractility (if modified systolic pressure and dP/dt max) or relaxation (if modified diastolic pressure and dP/dt min). From the left ventricular pressure, the following were calculated: heart rate (frequency of cardiac contractions), dP/dt min and dP/dt max. An acquisition unit MP150WSW with Acknowledge software (Biopac, USA) was used to continuously record all the signals (perfusion pressure, coronary flow, left ventricular pressure, ECG and MAP) through a PC computer. In each group (n=4 hearts), increasing concentrations of compound were infused according to the following design:
For each group, the data are expressed as mean ±S.E.M, % of variation compared to D0 and delta variation from D0. PR, QRS, QT and RR are measured on the same period but on a signal which results from 5 cycles.
On all the curves, the mean value is measured on 30 seconds in the last minute of perfusion for the following parameters: […]

[8] = tested on: Langendorff heart preparations; test: Heart rate variability after total flow occlusion in stable Langendorff heart preparations; conditions: 10 μM, 30 min

## C[C@@H](CN1CC(=O)NC(=O)C1)N1CC(=O)NC(=O)C1 [Dexrazoxane, (S)-4,4′-(1-methyl-1,2-ethanediyl)bis-2,6-piperazinedione]
[1]
  stability of lyophilized drug without significant decomposition: ~12 months
[2]; 27 minutes
  amplitude of UCS / contraction (effect in words): did not significantly alter
[2]; 27 minutes, n=3, control 9.4±3.4 μm, P=ns
  peak amplitude of UCS, absolute cell shortening: 10.7±3.2 μm
[2]; n=3, control 8.5±2.7% RCL, P=ns
  UCS as percentage of resting cell length: 8.0±2.0 % RCL
[3]; 0.1 N HCl at 25° C., salt of hydrochloric acid
  solubility in 0.1 N HCl: 35 mg/mL
[3]; 0.1 N HCl
  solubility in 0.1 N HCl: sparingly soluble
[3]; 25° C.
  solubility in water: about 10 mg/ml
[3]
  solubility in non-polar, organic solvents: practically insoluble
[3]; ethanol and methanol
  solubility in polar solvents: slightly soluble
[4]; 10 μM
  APD50: 512 ± 47 ms
  APD90: 573 ± 43 ms
  Action potentials, Peak amplitude: 119 ± 2 mV
  Action potentials, Resting potential: −69 ± 0 mV
[4]; 30 μM
  APD50: 493 ± 36 ms
  APD90: 564 ± 33 ms
  Action potentials, Peak amplitude: 121 ± 2 mV
  Action potentials, Resting potential: −68 ± 2 mV
[4]; 100 μM
  APD50: 548 ± 45 ms
  APD90: 619 ± 39 ms
  Action potentials, Peak amplitude: 124 ± 1 mV
  Action potentials, Resting potential: −66 ± 1 mV
[4]; over the tested concentrations
  action potential duration (effect in words): without inducing a change
[5]; 10 μM in superfusion solution, n=3, P<0.005
  decrease in APD40: 18±4%
[5]; 10 μM superfusion
  APD90-40 duration (index of triangulation): did not significantly alter
[5]; 10 μM, 27 minutes, control 212±9 ms
  action potential duration (APD90): 168 ± 12 ms
[5]; 10 μM, perfusion 27 minutes, n=4, P<0.005
  shortening of APD90: 18±3%
[5]; 10 μM
  action potential duration (effect in words): shortened action potential duration
[5]; 10 μM, listed as dexrazoxane
  action potential duration (effect in words): shortened action potential duration; also recorded: caused shortening of action potential duration
[5]; 10 μM, control 175±8 ms
  APD40: 136 ± 15 ms
[6]; 10 μM
  Ca^2+ transients, Peak amplitude (ΔF/F0): 5.2 ± 0.8 ΔF/F0
[6]; 30 μM
  Ca^2+ transients, Peak amplitude (ΔF/F0): 5.8 ± 1.0 ΔF/F0
[6]; 100 μM
  Ca^2+ transients, Peak amplitude (ΔF/F0): 5.1 ± 0.6 ΔF/F0
[6]; over the tested concentrations
  calcium transients (effect in words): dose proportional increase
[7]; DOX 3 * 10^−5 mM
  % change in MAP duration: 0.0%
  % change in QTc: −1.7 % change
  Cardiac rate: 200 Beats/min
  Cor flow: 14.6 mL/min
  LV dp/dt max: 1041 mmHg sec^−1
  LV dpdt (relax): −1022 mmHg sec^−1
  LV peak systolic pressure: 82 mmHg
  LVEDP: 5 mmHg
  MAP Duration: 143 ms
  QTcF: 237 ms
[7]; DOX 10^−5 mM
  % change in MAP duration: 0%
  % change in QTc: −2.1 % change
  Cardiac rate: 203 Beats/min
  Cor flow: 14 mL/min
  LV dp/dt max: 1238 mmHg sec^−1
  LV dpdt (relax): −1139 mmHg sec^−1
  LV peak systolic pressure: 94 mmHg
  LVEDP: 5 mmHg
  MAP Duration: 139 ms
  QTcF: 236 ms
[7]; dexrazoxane added to the doxorubicin perfusion
  LVEDP (effect in words): did not contribute
[7]; dexrazoxane added, both doxorubicin doses
  QTcF increase by doxorubicin (effect in words): reversed
[8]; control 2.9±0.2, n=3, P=ns
  coefficient of variation (heart rate variability) at reperfusion: 3.3±1.1
[8]; reperfusion after 15 min total flow ischemia, n=3
  increase of coefficient of variation (heart rate variability) during reperfusion: 77%
